The test has as its target Human eIF4E (Homo sapiens (Human), UniProt P06730). Briefly: Human eIF4E/4G binding assay (time-resolved fluorescence, HH-eIF4E and biotin-labeled 4G2 peptide). The settings on record: inhibition of binding of His-tagged human eIF4E (aa 28-217) to biotin-labeled 4G2 peptide. The procedure: The protein was solubilized with 8 M urea and purified under denaturing conditions using nickel-charged HisTrap HP columns (GE Healthcare). The protein was refolded by diluting to approximately 0.25 mg/mL with 6 M urea, 20 mM Hepes pH 7.0, 500 mM NaCl, 1 mM DTT, 1 mM EDTA, and 0.5 M arginine.HCl, and then dialyzing overnight into the same buffer without the urea. The protein was further dialyzed into 20 mM Hepes pH 6.5, 50 mM NaCl, 1 mM EDTA, and 1 mM DTT, filtered, and then concentrated using Hitrap SP sepharose FF columns (GE Healthcare). The protein was dialyzed into 20 mM Hepes pH 7.0, 500 mM NaCl, 5 mM DTT, and 10% glycerol and stored at −80° C. until use. Test compounds (1.6 mM stock in DMSO) were diluted 3 fold in series in DMSO. Compound solutions were diluted 4 fold in Assay Buffer (50 mM sodium phosphate, pH 6.5, 50 mM KCl, 1 mM DTT and 0.5 mg/mL gammaglobulin). […] The samples were incubated at room temperature for 20 minutes. […] IC50 values were calculated using Condoseo software (Genedata AG).

Chain of Human eIF4E (P06730 28-217): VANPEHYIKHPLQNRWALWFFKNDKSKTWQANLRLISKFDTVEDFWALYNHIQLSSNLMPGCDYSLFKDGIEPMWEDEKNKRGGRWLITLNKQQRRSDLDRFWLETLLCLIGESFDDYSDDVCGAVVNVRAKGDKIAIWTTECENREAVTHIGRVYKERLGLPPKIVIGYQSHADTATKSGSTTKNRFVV

In the case of `CN1CCC(NC(=O)c2ccc(-c3ccc(-c4nc(-c5ccc(Cl)c(Cl)c5)cs4)cc3C(=O)O)cc2)CC1` [Example 51, 4-[4-(3,4-Dichloro-phenyl)-thiazol-2-yl]-4′-(1-methyl-piperidin-4-ylcarbamoyl)-biphenyl-2-carboxylic acid], the IC50 is greater than 80 µM.

In turn, `CC(=O)N1CCC(NC(=O)c2ccc(-c3ccc(-c4nc(-c5ccc(Cl)c(Cl)c5)cs4)cc3C(=O)O)cc2)CC1` [Example 52, 4′-(1-Acetyl-piperidin-4-ylcarbamoyl)-4-[4-(3,4-dichloro-phenyl)-thiazol-2-yl]-biphenyl-2-carboxylic acid] registered an IC50 of 10 µM.

Compound `CN1CCN(C(=O)c2ccc(-c3ccc(-c4nc(-c5ccc(Cl)c(Cl)c5)cs4)cc3C(=O)O)cc2)CC1` [Example 53, 4-[4-(3,4-Dichloro-phenyl)-thiazol-2-yl]-4′-(4-methyl-piperazine-1-carbonyl)-biphenyl-2-carboxylic acid] came in with an IC50 greater than 80 µM.

The compound `O=C(O)c1cc(-c2nc(-c3ccc(Cl)c(Cl)c3)cs2)ccc1-c1ccc(C(=O)N2CCCC2)cc1` [Example 57, 4-[4-(3,4-Dichloro-phenyl)-thiazol-2-yl]-4′-(pyrrolidine-1-carbonyl)-biphenyl-2-carboxylic acid] gave an IC50 of 4.3 µM.

On to `O=C(NCCCN1CCOCC1)c1ccc(-c2ccc(-c3nc(-c4ccc(Cl)c(Cl)c4)cs3)cc2C(=O)O)cc1` [Example 58, 4-[4-(3,4-Dichloro-phenyl)-thiazol-2-yl]-4′-(3-morpholin-4-yl-propylcarbamoyl)-biphenyl-2-carboxylic acid], for which the 50% inhibitory concentration (IC50) was greater than 80 µM.

For the compound `O=C(NCCN1CCOCC1)c1ccc(-c2ccc(-c3nc(-c4ccc(Cl)c(Cl)c4)cs3)cc2C(=O)O)cc1` [Example 59, 4-[4-(3,4-Dichloro-phenyl)-thiazol-2-yl]-4′-(2-morpholin-4-yl-ethylcarbamoyl)-biphenyl-2-carboxylic acid], the IC50 is greater than 80 µM.

`O=C(NCC1CCOCC1)c1ccc(-c2ccc(-c3nc(-c4ccc(Cl)c(Cl)c4)cs3)cc2C(=O)O)cc1` [Example 60, 4-[4-(3,4-Dichloro-phenyl)-thiazol-2-yl]-4′-[(tetrahydro-pyran-4-ylmethyl)-carbamoyl]-biphenyl-2-carboxylic acid] came in with a 50% inhibitory concentration (IC50) of 8.9 µM.

Compound `O=C(NCC1CCCO1)c1ccc(-c2ccc(-c3nc(-c4ccc(Cl)c(Cl)c4)cs3)cc2C(=O)O)cc1` (centres unmarked) [Example 61, 4-[4-(3,4-Dichloro-phenyl)-thiazol-2-yl]-4′-[(tetrahydro-furan-2-ylmethyl)-carbamoyl]-biphenyl-2-carboxylic acid] yielded an IC50 of 5.5 µM.

`O=C(NC1CCOC1)c1ccc(-c2ccc(-c3nc(-c4ccc(Cl)c(Cl)c4)cs3)cc2C(=O)O)cc1` (centres unmarked) [Example 62, 4-[4-(3,4-Dichloro-phenyl)-thiazol-2-yl]-4′-(tetrahydro-furan-3-ylcarbamoyl)-biphenyl-2-carboxylic acid]: the IC50 stood at 7.7 µM.

Consider `O=C(NC1CCOCC1)c1ccc(-c2ccc(-c3nc(-c4ccc(Cl)c(Cl)c4)cs3)cc2C(=O)O)cc1` [Example 63, 4-[4-(3,4-Dichloro-phenyl)-thiazol-2-yl]-4′-(tetrahydro-pyran-4-ylcarbamoyl)-biphenyl-2-carboxylic acid], for which the IC50 was found to be 5.7 µM.

Compound `COc1ccc(CNC(=O)c2ccc(-c3ccc(-c4nc(-c5ccc(Cl)c(Cl)c5)cs4)cc3C(=O)O)cc2)cc1` [Example 64, 4-[4-(3,4-Dichloro-phenyl)-thiazol-2-yl]-4′-(4-methoxy-benzylcarbamoyl)-biphenyl-2-carboxylic acid] registered a half-inhibitory concentration (IC50) of 2 µM.

Consider `COc1cccc(CNC(=O)c2ccc(-c3ccc(-c4nc(-c5ccc(Cl)c(Cl)c5)cs4)cc3C(=O)O)cc2)c1` [Example 65, 4-[4-(3,4-Dichloro-phenyl)-thiazol-2-yl]-4′-(3-methoxy-benzylcarbamoyl)-biphenyl-2-carboxylic acid], for which the IC50 is 1.3 µM.

With `O=C(NCCc1cccnc1)c1ccc(-c2ccc(-c3nc(-c4ccc(Cl)c(Cl)c4)cs3)cc2C(=O)O)cc1` [Example 66, 4-[4-(3,4-Dichloro-phenyl)-thiazol-2-yl]-4′-(2-pyridin-3-yl-ethylcarbamoyl)-biphenyl-2-carboxylic acid], the IC50 came out at 9.6 µM.

`O=C(NCCc1ccccc1)c1ccc(-c2ccc(-c3nc(-c4ccc(Cl)c(Cl)c4)cs3)cc2C(=O)O)cc1` [Example 67, 4-[4-(3,4-Dichloro-phenyl)-thiazol-2-yl]-4′-phenethylcarbamoyl-biphenyl-2-carboxylic acid] registered an IC50 of 2.9 µM.

`O=C(NCc1ccncc1)c1ccc(-c2ccc(-c3nc(-c4ccc(Cl)c(Cl)c4)cs3)cc2C(=O)O)cc1` [Example 69, 4-[4-(3,4-Dichloro-phenyl)-thiazol-2-yl]-4′-[(pyridin-4-ylmethyl)-carbamoyl]-biphenyl-2-carboxylic acid] registered an IC50 of 7.1 µM.

The compound `Cc1cccc(CNC(=O)c2ccc(-c3ccc(-c4nc(-c5ccc(Cl)c(Cl)c5)cs4)cc3C(=O)O)cc2)c1` [Example 70, 4-[4-(3,4-Dichloro-phenyl)-thiazol-2-yl]-4′-(3-methyl-benzylcarbamoyl)-biphenyl-2-carboxylic acid] registered a half-inhibitory concentration (IC50) of 1.7 µM.

`O=C(NCc1cccc(C(F)(F)F)c1)c1ccc(-c2ccc(-c3nc(-c4ccc(Cl)c(Cl)c4)cs3)cc2C(=O)O)cc1` [Example 71, 4-[4-(3,4-Dichloro-phenyl)-thiazol-2-yl]-4′-(3-trifluoromethyl-benzylcarbamoyl)-biphenyl-2-carboxylic acid] displayed a 50% inhibitory concentration (IC50) of 3.2 µM.

`O=C(NCc1ccc(F)cc1)c1ccc(-c2ccc(-c3nc(-c4ccc(Cl)c(Cl)c4)cs3)cc2C(=O)O)cc1` [Example 72, 4-[4-(3,4-Dichloro-phenyl)-thiazol-2-yl]-4′-(4-fluoro-benzylcarbamoyl)-biphenyl-2-carboxylic acid] came in with an IC50 of 1.5 µM. This IC50 is about 2.1-fold lower than that of the compound before.

In the case of `O=C(NCc1cccc(F)c1)c1ccc(-c2ccc(-c3nc(-c4ccc(Cl)c(Cl)c4)cs3)cc2C(=O)O)cc1` [Example 73, 4-[4-(3,4-Dichloro-phenyl)-thiazol-2-yl]-4′-(3-fluoro-benzylcarbamoyl)-biphenyl-2-carboxylic acid], the half-maximal inhibitory concentration (IC50) was determined as 2.1 µM.

`O=C(NCc1ccccc1F)c1ccc(-c2ccc(-c3nc(-c4ccc(Cl)c(Cl)c4)cs3)cc2C(=O)O)cc1` [Example 74, 4-[4-(3,4-Dichloro-phenyl)-thiazol-2-yl]-4′-(2-fluoro-benzylcarbamoyl)-biphenyl-2-carboxylic acid]: the IC50 was 2.5 µM.

Compound `O=C(NCc1cccs1)c1ccc(-c2ccc(-c3nc(-c4ccc(Cl)c(Cl)c4)cs3)cc2C(=O)O)cc1` [Example 75, 4-[4-(3,4-Dichloro-phenyl)-thiazol-2-yl]-4′-[(thiophen-2-ylmethyl)-carbamoyl]-biphenyl-2-carboxylic acid] showed an IC50 of 3.1 µM.

Regarding `O=C(NCc1ccccc1)c1ccc(-c2ccc(-c3nc(-c4ccc(Cl)c(Cl)c4)cs3)cc2C(=O)O)cc1` [Example 76, 4′-Benzylcarbamoyl-4-[4-(3,4-dichloro-phenyl)-thiazol-2-yl]-biphenyl-2-carboxylic acid], the IC50 was determined as 2.3 µM.

Consider `NC(=O)c1ncccc1-c1ccc(-c2nc(-c3ccc(Cl)c(Cl)c3)cs2)cc1C(=O)O` [Example 77, 2-(2-Carbamoyl-pyridin-3-yl)-5-[4-(3,4-dichloro-phenyl)-thiazol-2-yl]-benzoic acid], for which the IC50 was 1.3 µM.

The values are drawn from patent US9073881B2, “Benzoic acid derivatives” (HOFFMANN-LA ROCHE INC., priority 2011, dated 2015).
